Laboratory results from article PMC11596612, “Nine New Glycosylated Compounds from the Leaves of the Medicinal Plant Malus hupehensis” (Molecules, 2024).

Each compound was assayed on NO production in LPS-activated RAW 264.7 macrophage cells (assay: Anti-NO activity assay: inhibition of NO production in LPS-activated RAW 264.7 macrophage cells). Settings: LPS-activated RAW 264.7 cells; means of three independent replicates; ammonium pyrrolidinedithiocarbamate positive control; read-out: NO production inhibitory activity IC50 (RAW 264.7).
Type: cell-based
Description: Using a previously published method, the anti-inflammatory activity of all compounds (1–15) was assessed based on the suppression of NO generation in RAW264.7 cells.

Row | Compound | IC50 [µM]
1 | methylenebisphloridzin [Compound 13] | > 40
2 | O=C(OC[C@H]1O[C@@H](Oc2cc(O)cc(O)c2C(=O)CCc2ccc(O)cc2)[C@H](O)[C@@H](O)[C@@H]1O)c1ccccc1 [Compound 10, phloridzin 6″-O-benzoate] | > 40
3 | S=C(S)N1CCCC1 [Ammonium pyrrolidinedithiocarbamate, reference compound] | 20 ± 0.12
4 | O=C(C=Cc1ccccc1)OCC1OC(Oc2cc(O)cc(O)c2C(=O)CCc2ccc(O)cc2)C(O)C(O)C1O (stereo not shown) [Compound 11, phloridzin 6″-O-cinnamate] | > 40

Same assay, conditions: Mus musculus, RAW264.7; LPS-activated RAW 264.7 cells; means of three independent replicates; ammonium pyrrolidinedithiocarbamate positive control; read-out: NO production inhibitory activity IC50 (RAW 264.7)

Row | Compound | IC50 [µM]
5 | O=C(/C=C/c1ccccc1)O[C@H]1[C@H](Oc2cc(O)cc(O)c2C(=O)CCc2ccc(O)cc2)O[C@H](CO)[C@@H](O)[C@@H]1O [Compound 2, malahupinoside D] | > 40
6 | COc1cccc2c1oc1c(OC)cc(O)cc12 [Compound 5] | > 40
7 | O=C(/C=C/c1ccc(O)cc1)Oc1ccc(CCC(=O)c2c(O)cc(O)cc2O[C@@H]2O[C@H](CO)[C@@H](O)[C@H](O)[C@H]2O)cc1 [Compound 12, 4-[3-[2-(β-D-Glucopyranosyloxy)-4,6-dihydroxyphenyl]-3-oxopropyl]phenyl(2E)-3-(4-hydroxyphenyl)-2-propenoate] | > 40
8 | COc1cc(/C=C/C(=O)OC[C@H]2O[C@@H](Oc3cc(O)cc(O)c3C(=O)CCc3ccc(O)cc3)[C@H](O)[C@@H](O)[C@@H]2O)ccc1O [Compound 4, malahupinoside F] | 29.6
9 | O=C(O[C@H]1[C@H](Oc2cc(O)cc(O)c2C(=O)CCc2ccc(O)cc2)O[C@H](CO)[C@@H](O)[C@@H]1O)c1ccccc1 [Compound 1, malahupinoside C] | > 40
10 | COc1cc(O)c(OC2OC(CO)C(O)C(O)C2O)c2c1oc1ccccc12 (stereo not shown) [Compound 7, fortuneanoside O] | > 40
11 | O=C(/C=C/c1ccc(O)cc1)OC[C@H]1O[C@@H](Oc2cc(O)cc(O)c2C(=O)CCc2ccc(O)cc2)[C@H](O)[C@@H](O)[C@@H]1O [Compound 3, malahupinoside E] | > 40
12 | COc1cc(OC)c(OC2OC(CO)C(O)C(O)C2O)c(-c2ccccc2O)c1 (stereo not shown) [Compound 9, fortuneanoside Q] | > 40
13 | COc1cc(OC)cc(-c2ccc(O)c(O[C@@H]3O[C@H](CO)[C@@H](O)[C@H](O)[C@H]3O)c2)c1 [Compound 15, 3′,5′-Dimethoxy-(1,1′-biphenyl)-3,4-diol 3-O-β-D-glucopyranoside] | > 40
14 | COc1cc(O)cc2c1oc1ccccc12 [Compound 14, 2-Hydroxy-4-methoxydibenzofuran] | > 40
15 | COc1cccc2c1oc1c(OC)cc(O)c(OC3OC(CO)C(O)C(O)C3O)c12 (stereo not shown) [Compound 6, fortuneanoside N] | > 40
16 | COc1cc(OC)cc(-c2ccccc2OC2OC(CO)C(O)C(O)C2O)c1 (stereo not shown) [Compound 8, fortuneanoside P] | > 40
